Values of other authors as cited in US8691283B2, “Standardized bee venom preparation” (priority 2000, dated 2014).

System: hypophyseal-adrenal system
Details: melittin stimulates the hypophyseal-adrenal system and produces cortisone

CC[C@H](C)[C@H](NC(=O)CN)C(=O)NCC(=O)N[C@@H](C)C(=O)N[C@H](C(=O)N[C@@H](CC(C)C)C(=O)N[C@@H](CCCCN)C(=O)N[C@H](C(=O)N[C@@H](CC(C)C)C(=O)N[C@H](C(=O)N[C@H](C(=O)NCC(=O)N[C@@H](CC(C)C)C(=O)N1CCC[C@H]1C(=O)N[C@@H](C)C(=O)N[C@@H](CC(C)C)C(=O)N[C@H](C(=O)N[C@@H](CO)C(=O)N[C@@H](Cc1c[nH]c2ccccc12)C(=O)N[C@H](C(=O)N[C@@H](CCCCN)C(=O)N[C@@H](CCCNC(=N)N)C(=O)N[C@@H](CCCCN)C(=O)N[C@@H](CCCNC(=N)N)C(=O)N[C@@H](CCC(N)=O)C(=O)N[C@@H](CCC(N)=O)C(N)=O)[C@@H](C)CC)[C@@H](C)CC)[C@@H](C)O)[C@@H](C)O)C(C)C)C(C)C [melittin, Melittin]
potency relative to hydrocortisone: 100 times
